In test [1] the test system is C. parvum. The test is described as follows: In vivo efficacy in C. parvum-infected IFN-γ KO mice, fecal oocysts load by qPCR. Set-up: species or system Cryptosporidium parvum. As to conditions: paromomycin 1,000 mg/kg oral once daily from day 3 PI. As for the experimental part:
(§1) Eight weeks old male interferon-gamma knockout (IFN-γ KO) mice (B6.129S7-Ifng^TM1Ts/J) were purchased from The Jackson Laboratory, United States, and allowed to quarantine and acclimatize for 1 week before the commencement of experiments. Before the start of the infection assays in mice, the tolerability of each inhibitor was determined by daily oral gavage with varying dosages (0–10 mg/kg mouse bodyweight) in groups of mice (n = 3 mice per group) for 8 days. During this period, mice were monitored daily for any changes in physical and mental activity, feeding, body weight, body temperature, fur condition, and body posture. […] Mice were divided into infected and uninfected groups (n = 3 mice per group) and each individual mouse was housed in a separate cage lined with sterile gauze bedding. Each mouse from the infected group was infected by oral gavage administration of 10^4 C. parvum AUCP-1 isolate oocysts suspended in 50 μl of PBS. Beginning day 3 PI, groups of mice were orally treated with CpPyK inhibitors (at the specified doses), sham (100 μl of 5% DMSO in PBS), or 1,000 mg/kg paromomycin (in sterile water) once daily for a total of 8 days. Fecal pellets were collected daily in individual sterile 15 ml tubes, and submerged in an equivalent volume of PBS containing a cocktail of penicillin (100 units/ml), streptomycin (100 μg/ml), chloramphenicol (34 μg/ml), and amphotericin (0.25 μg/ml), and stored at 4°C until use. Three independent replicate infection assays were performed. Mice were sacrificed at day 11 PI, and 5 cm of the distal small intestine just anterior to the cecum was resected and submerged in 10% neutral buffered formalin and submitted for histopathological processing in the Comparative Biosciences Histology Laboratory at the University of Illinois at Urbana-Champaign. Briefly, intestinal tissues preserved in 10% neutral buffered formalin were washed in 70% ethanol, embedded in paraffin, and sectioned transversely at a thickness of 5 μm. Sections were stained with hematoxylin and eosin. The slides were imaged using a Zeiss microscope fitted with a color camera.
DNA was isolated from 250 mg of feces collected from individual mice using the QIAamp® PowerFecal® Pro DNA kit (Qiagen, United States) following the manufacturer’s protocol. Oocysts load per gram of feces was measured by quantitative real time PCR (qPCR) analysis of the Cp18s rRNA gene (GenBank accession number AF164102) using gene-specific primers: 5′-[…]-3′ (Forward) and 5′-[…]-3′ (Reverse), described previously ([Parr et al., 2007]). To generate a quantification standard curve, fecal samples were obtained from uninfected mice and spiked with 10^8 C. parvum oocysts per gram of feces, followed by isolation of DNA as described above. Ten-fold serial dilutions of the extracted DNA were made and used as quantification standards for qPCR. C. parvum oocysts load quantification for the test mice was performed using DNA samples from the infected feces. Each 20 μl qPCR reaction contained 10 μl of PowerUp™ SYBR™ Green Master Mix (Applied Biosystems, United States), 500 nM of each primer, and 2 μl of DNA template. After 2 min of initial denaturation at 95°C, 40 cycles of denaturation at 95°C for 15 sec and annealing/extension at 60°C for 1 min were performed in a 7500 Real-Time PCR System (Applied Biosystems, United States). The oocyst load per gram of feces was derived by the 7500-system software using the generated quantification standard curves (Supplementary Figure 1).

Test [2] has as its system C. parvum. Set-up: method as in Li et al., 2019. Conditions: reported value; ref Li et al., 2019; read-out: in vitro anti-Cryptosporidium EC50; cited from earlier work.
Test [3] concerns C. parvum. The test is described as follows: Histopathology of distal small intestine of C. parvum-infected IFN-γ KO mice. Type of test: in vivo, Cryptosporidium parvum. As to conditions: 1,000 mg/kg daily oral from day 3 PI, sacrificed day 11 PI. As for the experimental part: as §1

This is an account of results in publication PMC8761912, “Cryptosporidium parvum Pyruvate Kinase Inhibitors With in vivo Anti-cryptosporidial Efficacy” (Frontiers in Microbiology, 2022).

Broadly, the EC50 is the concentration giving half of the maximal effect. With `NC[C@@H]1O[C@H](O[C@H]2[C@@H](O)[C@H](O[C@@H]3[C@@H](O)[C@H](N)C[C@H](N)[C@H]3O[C@H]3O[C@H](CO)[C@@H](O)[C@H](O)[C@H]3N)O[C@@H]2CO)[C@H](N)[C@@H](O)[C@@H]1O` [Paromomycin, reference compound], the “oocysts load by day 9 PI vs other treatments and untreated group” value in the test with C. parvum [1] is listed as “significantly (P < 0.05) lower oocysts loads”. Also, the EC50 in the test on C. parvum [2] was 450 µM. Besides, in the test with C. parvum [3], the “intestinal pathology (histology, distal small intestine)” value is recorded as “notably reduced pathological changes”.
